Patent US10800767B2, “Thyroid hormone receptor beta agonist compounds” (Terns, Inc., priority 2018, dated 2020)

Tests used:
[1] = biological target: TR alpha-LBD (thyroid hormone receptor alpha) (Homo sapiens (Human), UniProt P10827); assay: LanthaScreen TR-FRET Thyroid Receptor alpha Coactivator Assay (agonist screening); type: biochemical; conditions: TR alpha-LBD 0.4 nM, 2 hour incubation, average of duplicate runs, read-out: EC50 THRα-FRET
Procedure: (§1) Example B1: Time-Resolved Fluorescence Resonance Energy Transfer (TR-FRET) Assay for Thyroid Hormone Receptor Agonist Screening
(§2) LanthaScreen™ TR-FRET Thyroid Receptor alpha Coactivator Assay kit (ThermoFisher) and LanthaScreen™ TR-FRET Thyroid Receptor beta Coactivator Assay kit (ThermoFisher) were used for agonist compound screening. Compounds in DMSO were diluted using ECHO Liquid Handler (Labcyte Inc.) into 384 plates in 10-point 3-fold series in duplicate (5 micro M final top concentration). Buffer C (ThermoFisher) was added to each well before the 4× mixture of fluorescein-SCR2-2 coactivator (200 nM final concentration), Terbium-labeled anti-GST antibody (2 nM final concentration), and TR alpha-LBD (0.4 nM final concentration) or TR beta-LBD (1.0 nM final concentration) was added. After 2 hour incubation at room temperature in dark, the TR-FRET signal was measured on an EnVision plate reader (PerkinElmer) with excitation at 340 nm and dual emission readout at 495 and 520 nm with the delay time of 100 micro second and the integration time of 200 micro second. The ratio of emission signal at 520 and at 495 was used to calculate EC50 using GraphPad Prism (GraphPad Software). In every batch of compound screening, T3 (L-3,3′,5-Triiodothyronine sodium salt, >95%) (Calbiochem) was used as reference compound. The EC50 of T3 measured were within 3-fold of the reference value provided by the assay kit manufacturer (ThermoFisher Scientific). The Z′ factors measured in every batch of screening using T3 as high percent effect (HPE) control and 0.5% DMSO as zero percent effect (ZPE) control were in the range of 0.5 to 0.8. Compounds' THR-beta selectivity values are derived from T3-selectivity normalized data.

[2] = biological target: TR beta-LBD (thyroid hormone receptor beta) (Homo sapiens (Human), UniProt P10828); assay: LanthaScreen TR-FRET Thyroid Receptor beta Coactivator Assay (agonist screening); type: biochemical; conditions: for THRβ-Selectivity: THR beta over THR alpha, derived from T3-selectivity normalized data; for EC50: TR-FRET coactivator assay, TR beta-LBD 1.0 nM, 2 hour incubation, average of duplicate runs, read-out: EC50 THRβ-FRET
TR beta-LBD (thyroid hormone receptor beta), sequence (P10828 217-461): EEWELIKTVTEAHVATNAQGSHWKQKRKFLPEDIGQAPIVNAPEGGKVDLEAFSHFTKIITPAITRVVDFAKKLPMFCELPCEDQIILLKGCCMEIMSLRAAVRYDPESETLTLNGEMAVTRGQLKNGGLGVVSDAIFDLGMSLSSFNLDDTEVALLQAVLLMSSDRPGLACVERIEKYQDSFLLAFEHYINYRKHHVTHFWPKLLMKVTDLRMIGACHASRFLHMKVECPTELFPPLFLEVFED
Procedure: as §1, §2

TR alpha-LBD (thyroid hormone receptor alpha), sequence (P10827 other isoform, or with tags, fused parts or gaps del 1-162, other chains not shown): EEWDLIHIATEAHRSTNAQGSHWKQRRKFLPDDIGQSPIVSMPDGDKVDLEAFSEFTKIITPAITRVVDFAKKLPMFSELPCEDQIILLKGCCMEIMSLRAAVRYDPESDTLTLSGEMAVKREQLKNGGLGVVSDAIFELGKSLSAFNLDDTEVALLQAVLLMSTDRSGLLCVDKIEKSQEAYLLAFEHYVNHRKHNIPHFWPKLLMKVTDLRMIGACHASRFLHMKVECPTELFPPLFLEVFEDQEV

Compound	EC50 [1]	THRβ-Selectivity [2]	EC50 [2]
O=C(Nc1cc(Cl)c(Oc2cc(C34CC(C3)C4)c(=O)[nH]n2)c(Cl)c1)c1noc(=O)[nH]1 [Example 31, N-(4-((5-(bicyclo[1.1.1]pentan-1-yl)-6-oxo-1,6-dihydropyridazin-3-yl)oxy)-3,5-dichlorophenyl)-5-oxo-4,5-dihydro-1,2,4-oxadiazole-3-carboxamide]	> 5000 nM	>34.8	600 nM
CC(C)c1cc(Cc2c(Cl)cc(NC(=O)c3noc(=O)[nH]3)cc2Cl)n[nH]c1=O [Example 13, N-(3,5-dichloro-4-((5-isopropyl-6-oxo-1,6-dihydropyridazin-3-yl)methyl)phenyl)-5-oxo-4,5-dihydro-1,2,4-oxadiazole-3-carboxamide]	1630 nM	86.5	53.6 nM
C[C@H](O)c1cc(Oc2c(Cl)cc(NC(=O)c3noc(=O)[nH]3)cc2Cl)n[nH]c1=O [Example 29P2, (S)—N-(3,5-dichloro-4-((5-(1-hydroxyethyl)-6-oxo-1,6-dihydropyridazin-3-yl)oxy)phenyl)-5-oxo-4,5-dihydro-1,2,4-oxadiazole-3-carboxamide]	1760 nM	80.8	91.3 nM
CC(C)c1cc(Oc2c(Cl)cc(NC(=O)c3noc(=O)[nH]3)c3c2CCC3)nn(C)c1=O [Example 24, N-(6-chloro-7-((5-isopropyl-1-methyl-6-oxo-1,6-dihydropyridazin-3-yl)oxy)-2,3-dihydro-1H-inden-4-yl)-5-oxo-4,5-dihydro-1,2,4-oxadiazole-3-carboxamide]	2050 nM	39.5	188 nM
CC(C)(C)c1cc(Oc2c(Cl)cc(NC(=O)c3noc(=O)[nH]3)cc2Cl)n[nH]c1=O [Example 28, N-(4-((5-(tert-butyl)-6-oxo-1,6-dihydropyridazin-3-yl)oxy)-3,5-dichlorophenyl)-5-oxo-4,5-dihydro-1,2,4-oxadiazole-3-carboxamide]	4260 nM	67	286 nM
Cc1cc(NC(=O)c2noc(=O)[nH]2)cc(C)c1Cc1cc(C(C)C)c(=O)[nH]n1 [Example 30, N-(4-((5-isopropyl-6-oxo-1,6-dihydropyridazin-3-yl)methyl)-3,5-dimethylphenyl)-5-oxo-4,5-dihydro-1,2,4-oxadiazole-3-carboxamide]	3110 nM	14.3	821 nM
CC(CO)c1cc(Oc2c(Cl)cc(NC(=O)c3noc(=O)[nH]3)cc2Cl)nn(C)c1=O (centres unmarked) [Example 35, N-(3,5-dichloro-4-((5-(1-hydroxypropan-2-yl)-1-methyl-6-oxo-1,6-dihydropyridazin-3-yl)oxy)phenyl)-5-oxo-4,5-dihydro-1,2,4-oxadiazole-3-carboxamide]	2600 nM	15.8	762 nM
CC(C)c1cc(Oc2c(Cl)cc(N(C)Cc3noc(=O)[nH]3)cc2Cl)nn(C)c1=O [Example 2, 3-(((3,5-dichloro-4-((5-isopropyl-1-methyl-6-oxo-1,6-dihydropyridazin-3-yl)oxy)phenyl)(methyl)amino)methyl)-1,2,4-oxadiazol-5(4H)-one]	> 5000 nM	–	> 5000 nM
CCC(O)c1cc(Oc2c(Cl)cc(NC(=O)c3noc(=O)[nH]3)cc2Cl)n[nH]c1=O (centres unmarked) [Example 32, N-(3,5-dichloro-4-((5-(1-hydroxypropyl)-6-oxo-1,6-dihydropyridazin-3-yl)oxy)phenyl)-5-oxo-4,5-dihydro-1,2,4-oxadiazole-3-carboxamide]	1550 nM	77.9	86.4 nM

Compounds with a lower EC50 [1], results first:

EC50 [1]	THRβ-Selectivity [2]	EC50 [2]	Compound
49.5 nM	17.2	7.6 nM	CC(C)c1cc(Oc2c(Cl)cc(NCc3noc(=O)[nH]3)cc2Cl)nn(C)c1=O [Example 1, 3-(((3,5-dichloro-4-((5-isopropyl-1-methyl-6-oxo-1,6-dihydropyridazin-3-yl)oxy)phenyl)amino)methyl)-1,2,4-oxadiazol-5(4H)-one]
314 nM	31.7	27.1 nM	CC(C)c1cc(Oc2c(Cl)cc(NC(=O)c3noc(=O)[nH]3)cc2Cl)nn(C)c1=O [Example 4, N-(3,5-dichloro-4-((5-isopropyl-1-methyl-6-oxo-1,6-dihydropyridazin-3-yl)oxy)phenyl)-5-oxo-4,5-dihydro-1,2,4-oxadiazole-3-carboxamide]
75.9 nM	1.0	277 nM	CC(C)c1cc(Oc2c(Cl)cc(NC(C)c3noc(=O)[nH]3)cc2Cl)nn(C)c1=O (single isomer, unassigned) [Example 3-P1, 3-(1-((3,5-dichloro-4-((5-isopropyl-1-methyl-6-oxo-1,6-dihydropyridazin-3-yl)oxy)phenyl)amino)ethyl)-1,2,4-oxadiazol-5(4H)-one]
549 nM	48	46.6 nM	CC(C)c1cc(Cc2c(Cl)cc(NC(=O)c3noc(=O)[nH]3)cc2Cl)nn(C)c1=O [Example 14, N-(3,5-dichloro-4-((5-isopropyl-1-methyl-6-oxo-1,6-dihydropyridazin-3-yl)methyl)phenyl)-5-oxo-4,5-dihydro-1,2,4-oxadiazole-3-carboxamide]
550 nM	6.1	271 nM	CC(C)c1cc(C(=O)c2c(Cl)cc(NCc3noc(=O)[nH]3)cc2Cl)nn(C)c1=O [Example 18, 3-(((3,5-dichloro-4-(5-isopropyl-1-methyl-6-oxo-1,6-dihydropyridazine-3-carbonyl)phenyl)amino)methyl)-1,2,4-oxadiazol-5(4H)-one]
699 nM	44.6	58.1 nM	CC(C)c1cc(Oc2c(Cl)cc(NC(=O)c3noc(=O)[nH]3)c(F)c2Cl)nn(C)c1=O [Example 26, N-(3,5-dichloro-2-fluoro-4-((5-isopropyl-1-methyl-6-oxo-1,6-dihydropyridazin-3-yl)oxy)phenyl)-5-oxo-4,5-dihydro-1,2,4-oxadiazole-3-carboxamide]
78 nM	3.6	58.1 nM	CC(C)c1cc(Oc2c(Cl)cc(OCc3noc(=O)[nH]3)cc2Cl)nn(C)c1=O [Example 6, 3-((3,5-dichloro-4-((5-isopropyl-1-methyl-6-oxo-1,6-dihydropyridazin-3-yl)oxy)phenoxy)methyl)-1,2,4-oxadiazol-5(4H)-one]
469 nM	27.8	74.2 nM	CC(C)c1cc(Oc2c(Cl)cc(NCc3noc(=O)[nH]3)cc2Cl)n[nH]c1=O [Example 5, 3-(((3,5-dichloro-4-((5-isopropyl-6-oxo-1,6-dihydropyridazin-3-yl)oxy)phenyl)amino)methyl)-1,2,4-oxadiazol-5(4H)-one]
1150 nM	81	43.3 nM	CC[C@H](O)c1cc(Oc2c(Cl)cc(NC(=O)c3noc(=O)[nH]3)cc2Cl)n[nH]c1=O [Example 32P2, (S)—N-(3,5-dichloro-4-((5-(1-hydroxypropyl)-6-oxo-1,6-dihydropyridazin-3-yl)oxy)phenyl)-5-oxo-4,5-dihydro-1,2,4-oxadiazole-3-carboxamide]
82.4 nM	6.7	44.2 nM	CC(C)c1cc(Cc2c(Cl)cc(NCc3noc(=O)[nH]3)cc2Cl)nn(C)c1=O [Example 16, 3-(((3,5-dichloro-4-((5-isopropyl-1-methyl-6-oxo-1,6-dihydropyridazin-3-yl)methyl)phenyl)amino)methyl)-1,2,4-oxadiazol-5(4H)-one]
